One test concerns the target T1, IL-17A : IL-17RA binding (Homo sapiens, UniProt Q16552, K93Q).
T1 construct: Name: IL-17A-Flag
Put plainly: IL-17A(FLAG-tagged):IL-17RA(His-tagged) binding disruption Eu-HTRF assay, Protocol 1. To be noted: FLAG-IL-17A 2.5 nM at 2x final concentration; average if tested more than once. The gist of the method: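 IC50 came from a one-site competition fit of the acceptor/donor (665/620 nm) HTRF ratio. His-tagged IL-17RA, Eu-anti-FLAG and D2-anti-His were added after a 1 h rt compound preincubation with FLAG-tagged IL-17A dimer in PBS/0.01% Triton X-100, followed by 2 h at rt before reading.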

Test [1] concerns IL-17A-induced G-CSF production in human normal keratinocyte (NHK). Put plainly: NHK assay: IL-17A-induced G-CSF production in normal human keratinocytes. The class given is cell-based. The settings on record: 24 h, IL-17A 5 ng/mL, average if tested more than once. In short, it runs like this: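 Stimulus rhIL-17A 5 ng/mL final, premixed 1 h rt with compound; adult NHK, 5% FBS, 0.2% DMSO. Viability by CellTiter-Glo vs DMSO.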

T1 sequence (Q16552 with tags, fused parts or gaps K93Q): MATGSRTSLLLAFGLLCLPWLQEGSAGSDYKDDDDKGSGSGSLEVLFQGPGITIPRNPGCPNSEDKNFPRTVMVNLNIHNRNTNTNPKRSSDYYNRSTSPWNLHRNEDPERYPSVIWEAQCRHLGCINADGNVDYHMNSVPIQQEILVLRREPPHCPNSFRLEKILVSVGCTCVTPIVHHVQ

On to `C[C@H](NC(=O)CCC(F)(F)F)c1ccc2[nH]c([C@@H](NC(=O)c3ccnn3CCC(F)(F)F)C3CCC(F)(F)CC3)nc2c1` [Example 124, N—((S)-(4,4-Difluorocyclohexyl)(5-((S)-1-(4,4,4-trifluorobutanamido)ethyl)-1H-benzo[d]imidazol-2-yl)methyl)-1-(3,3,3-trifluoropropyl)-1H-pyrazole-5-carboxamide], for which the IC50 on IL-17A : IL-17RA binding is above 100 nM; in test [1] (Homo sapiens, Keratinocyte) it was above 100 nM.

Regarding `CC(C)(O)c1nonc1C(=O)N[C@@H](COC(C)(C)C(F)(F)F)c1nc2cc([C@H](NC(=O)CC3CC(F)(F)C3)C3CC3)ccc2[nH]1` [Example 168, N—((R)-1-(5-((R)-Cyclopropyl(2-(3,3-difluorocyclobutyl)acetamido)methyl)-1H-benzo[d]imidazol-2-yl)-2-((1,1,1-trifluoro-2-methylpropan-2-yl)oxy)ethyl)-4-(2-hydroxypropan-2-yl)-1,2,5-oxadiazole-3-carboxamide], the IC50 at IL-17A : IL-17RA binding is 50 to 100 nM; in test [1] (Homo sapiens, Keratinocyte) it was above 100 nM.

As for `[2H]C([2H])([2H])n1nccc1C(=O)N[C@@H](COC(C)(C)C(F)(F)F)c1nc2cc([C@H](NC(=O)CC3CC(F)(F)C3)C3CC3)ccc2[nH]1` [Example 167, N—((R)-1-(5-((R)-Cyclopropyl(2-(3,3-difluorocyclobutyl)acetamido)methyl)-1H-benzo[d]imidazol-2-yl)-2-((1,1,1-trifluoro-2-methylpropan-2-yl)oxy)ethyl)-1-(methyl-d3)-1H-pyrazole-5-carboxamide], the IC50 at IL-17A : IL-17RA binding is 50 to 100 nM; in test [1] (Homo sapiens, Keratinocyte), 50 to 100 nM.

As to `Cc1nonc1C(=O)N[C@H](c1nc2ccc([C@H](NC(=O)CC3CC(F)(F)C3)C3CC3)cc2[nH]1)C1CCCCO1` (single isomer, unassigned) [Example 252, N—((R)-(6-((R)-Cyclopropyl(2-(3,3-difluorocyclobutyl)acetamido)methyl)-1H-benzo[d]imidazol-2-yl)((R*)-tetrahydro-2H-pyran-2-yl)methyl)-4-methyl-1,2,5-oxadiazole-3-carboxamide], the IC50 on IL-17A : IL-17RA binding was above 100 nM; in test [1] (Homo sapiens, Keratinocyte) it was above 100 nM.

Take `CCn1ncc(C(=O)N[C@H](c2nc3cc([C@@H](C)NC(=O)CCC(F)(F)F)ccc3[nH]2)C2CCC(F)(F)CC2)n1` [Example 7, N—[(S)-(4,4-Difluorocyclohexyl)-[6-[(1R)-1-(4,4,4-trifluorobutanoylamino)ethyl]-1H-benzimidazol-2-yl]methyl]-2-ethyl-triazole-4-carboxamide]: the IC50 on IL-17A : IL-17RA binding was above 100 nM; in test [1] (Homo sapiens, Keratinocyte), above 100 nM.

`Cc1nonc1C(=O)N[C@H](c1nc2cc([C@@H](C)NC(=O)CCC(F)(F)F)ccc2[nH]1)[C@@H]1CCCC(F)(F)C1` [Example 264, N—((S)—((R)-3,3-Difluorocyclohexyl)(5-((R)-1-(4,4,4-trifluorobutanamido)ethyl)-1H-benzo[d]imidazol-2-yl)methyl)-4-methyl-1,2,5-oxadiazole-3-carboxamide]: the IC50 on IL-17A : IL-17RA binding is below 50 nM; in test [1] (Homo sapiens, Keratinocyte), above 100 nM.

Consider `CC(C)n1nccc1C(=O)N[C@H](c1nc2ccc([C@H](NC(=O)CC3CC(F)(F)C3)C3CC3)cc2[nH]1)C1CC(F)(F)CCO1` (single isomer, unassigned) [Example 172, N—((R)-(6-((R)-Cyclopropyl(2-(3,3-difluorocyclobutyl)acetamido)methyl)-1H-benzo[d]imidazol-2-yl)((S*)-4,4-difluorotetrahydro-2H-pyran-2-yl)methyl)-1-isopropyl-1H-pyrazole-5-carboxamide], for which the IC50 on IL-17A : IL-17RA binding was above 100 nM; in test [1] (Homo sapiens, Keratinocyte) it was below 50 nM.

In the case of `C[C@@H](NC(=O)CCC(F)(F)F)c1ccc2[nH]c([C@@H](NC(=O)c3cnn(CCOC(F)F)c3)C3CCC(F)(F)CC3)nc2c1` [Example 27, N—[(S)-(4,4-Difluorocyclohexyl)-[6-[(1R)-1-(4,4,4-trifluorobutanoylamino)ethyl]-1H-benzimidazol-2-yl]methyl]-1-[2-(difluoromethoxy)ethyl]pyrazole-4-carboxamide], the IC50 at IL-17A : IL-17RA binding was above 100 nM; in test [1] (Homo sapiens, Keratinocyte), above 100 nM.

Take `O=C(CC1CC(F)(F)C1)N[C@@H](c1ccc2[nH]c([C@@H](NC(=O)c3nonc3C3CC3)[C@H]3[C@@H]4CC(F)(F)C[C@@H]43)nc2c1)C1CC1` [Example 266, 4-Cyclopropyl-N—((S)-(5-((R)-cyclopropyl(2-(3,3-difluorocyclobutyl)acetamido)methyl)-1H-benzo[d]imidazol-2-yl)((1R,5S,6r)-3,3-difluorobicyclo[3.1.0]hexan-6-yl)methyl)-1,2,5-oxadiazole-3-carboxamide]: the IC50 at IL-17A : IL-17RA binding was below 50 nM; in test [1] (Homo sapiens, Keratinocyte), below 50 nM.

For the compound `C[C@@H](NC(=O)CCC(F)(F)F)c1ccc2[nH]c([C@@H](NC(=O)[C@H]3C[C@H]3F)C3CCC(F)(F)CC3)nc2c1` [Example 99, (1R,2R)—N—((S)-(4,4-Difluorocyclohexyl)(5-((R)-1-(4,4,4-trifluorobutanamido)ethyl)-1H-benzo[d]imidazol-2-yl)methyl)-2-fluorocyclopropane-1-carboxamide], the IC50 was above 100 nM on IL-17A : IL-17RA binding and above 100 nM in test [1] (Homo sapiens, Keratinocyte).

Take `CC(Cn1ncc(C(=O)N[C@H](c2nc3ccc([C@@H](C)NC(=O)CCC(F)(F)F)cc3[nH]2)C2CCC(F)(F)CC2)n1)C(F)(F)F` (single isomer, unassigned) [Example 70, N—((S)-(4,4-Difluorocyclohexyl)(6-((R)-1-(4,4,4-trifluorobutanamido)ethyl)-1H-benzo[d]imidazol-2-yl)methyl)-2-((S*)-3,3,3-trifluoro-2-methylpropyl)-2H-1,2,3-triazole-4-carboxamide]: the IC50 (at IL-17A : IL-17RA binding; in test [1]) was above 100 nM in each case.

Take `CC(C)n1nccc1C(=O)N[C@@H](COC1CC(F)(F)C1)c1nc2ccc([C@H](NC(=O)CC3CC(F)(F)C3)C3CC3)cc2[nH]1` [Example 257, N—((R)-1-(6-((R)-Cyclopropyl(2-(3,3-difluorocyclobutyl)acetamido)methyl)-1H-benzo[d]imidazol-2-yl)-2-(3,3-difluorocyclobutoxy)ethyl)-1-isopropyl-1H-pyrazole-5-carboxamide]: the IC50 was above 100 nM at IL-17A : IL-17RA binding and above 100 nM in test [1] (Homo sapiens, Keratinocyte).

With `C[C@@H](NC(=O)CCC(F)(F)F)c1ccc2[nH]c([C@@H](NC(=O)[C@@H]3C[C@H]3C(F)(F)F)C3CCC(F)(F)CC3)nc2c1` (relative stereo) [Example 106, trans-(1R*,2R*)—N—((S)-(4,4-Difluorocyclohexyl)(5-((R)-1-(4,4,4-trifluorobutanamido)ethyl)-1H-benzo[d]imidazol-2-yl)methyl)-2-(trifluoromethyl)cyclopropane-1-carboxamide], the IC50 at IL-17A : IL-17RA binding was above 100 nM; in test [1] (Homo sapiens, Keratinocyte), above 100 nM.

Regarding `C[C@@H](NC(=O)CCC(F)(F)F)c1ccc2nc([C@@H](NC(=O)c3cnnn3C3CC3)C3CCC(F)(F)CC3)[nH]c2c1` [Example 60, 1-Cyclopropyl-N—((S)-(4,4-difluorocyclohexyl)(6-((R)-1-(4,4,4-trifluorobutanamido)ethyl)-1H-benzo[d]imidazol-2-yl)methyl)-1H-1,2,3-triazole-5-carboxamide], the IC50 was above 100 nM at IL-17A : IL-17RA binding and above 100 nM in test [1] (Homo sapiens, Keratinocyte).

Regarding `CC(Cn1nncc1C(=O)N[C@H](c1nc2ccc([C@@H](C)NC(=O)CCC(F)(F)F)cc2[nH]1)C1CCC(F)(F)CC1)C(F)(F)F` (single isomer, unassigned) [Example 72, N—((S)-(4,4-Difluorocyclohexyl)(6-((R)-1-(4,4,4-trifluorobutanamido)ethyl)-1H-benzo[d]imidazol-2-yl)methyl)-1-((S*)-3,3,3-trifluoro-2-methylpropyl)-1H-1,2,3-triazole-5-carboxamide], the IC50 (at IL-17A : IL-17RA binding; in test [1]) was above 100 nM each time.

`CC(C)c1ocnc1C(=O)N[C@H](c1nc2cc([C@@H](C)NC(=O)CCC(F)(F)F)ccc2[nH]1)C1CCC(F)(F)CC1` [Example 207, N—((S)-(4,4-Difluorocyclohexyl)(5-((R)-1-(4,4,4-trifluorobutanamido)ethyl)-1H-benzo[d]imidazol-2-yl)methyl)-5-isopropyloxazole-4-carboxamide]: the IC50 on IL-17A : IL-17RA binding was 50 to 100 nM; in test [1] (Homo sapiens, Keratinocyte), above 100 nM.

As to `Cc1nonc1C(=O)N[C@@H](C[C@H]1CCC(F)(F)C1)c1nc2ccc([C@H](NC(=O)CC3CC(F)(F)C3)C3CC3)cc2[nH]1` [Example 235, N—((S)-1-(6-((R)-Cyclopropyl(2-(3,3-difluorocyclobutyl)acetamido)methyl)-1H-benzo[d]imidazol-2-yl)-2-((R)-3,3-difluorocyclopentyl)ethyl)-4-methyl-1,2,5-oxadiazole-3-carboxamide], the IC50 on IL-17A : IL-17RA binding is above 100 nM; in test [1] (Homo sapiens, Keratinocyte), above 100 nM.

As for `O=C(CC1CC(F)(F)C1)N[C@@H](c1ccc2[nH]c([C@@H](NC(=O)c3nonc3OCC(F)F)C3CCC(F)(F)CC3)nc2c1)C1CC1` [Example 144, N—((S)-(5-((R)-Cyclopropyl(2-(3,3-difluorocyclobutyl)acetamido)methyl)-1H-benzo[d]imidazol-2-yl)(4,4-difluorocyclohexyl)methyl)-4-(2,2-difluoroethoxy)-1,2,5-oxadiazole-3-carboxamide], the IC50 is above 100 nM at IL-17A : IL-17RA binding and below 50 nM in test [1] (Homo sapiens, Keratinocyte).

These data come from patent US20240376085A1 (Janssen Pharmaceutica NV, priority 2021, published 2024).
